Results: the NIST ThermoML archive (doi:10.1021/je049814b)

Test: wn = mass fraction of the nth substance listed
Settings: Liquid, Coaxial cylinder method

[Br-].[K+] [potassium bromide] + O
thermal conductivity [W/m/K]
Settings | 100 kPa | 2000 kPa | 10000 kPa | 40000 kPa
294.7 K, w1 = 0.1 | 0.578 | 0.578 | 0.582 | 0.592
295.7 K, w1 = 0.3 | 0.521 | 0.521 | 0.525 | 0.532
296.8 K, w1 = 0.2 | 0.553 | 0.553 | 0.557 | 0.565
320.9 K, w1 = 0.1 | 0.612 | 0.612 | 0.617 | 0.628
321.4 K, w1 = 0.3 | 0.554 | 0.554 | 0.559 | 0.569
325.4 K, w1 = 0.2 | 0.589 | 0.589 | 0.595 | 0.602
351.2 K, w1 = 0.2 | 0.616 | 0.616 | 0.62 | 0.629
354.8 K, w1 = 0.1 | 0.644 | 0.644 | 0.65 | 0.662
357.6 K, w1 = 0.3 | 0.588 | 0.588 | 0.591 | 0.601
381.3 K, w1 = 0.1 | 0.661 | 0.661 | 0.669 | 0.682
384.2 K, w1 = 0.3 | 0.601 | 0.601 | 0.605 | 0.616
387.6 K, w1 = 0.2 | 0.634 | 0.634 | 0.638 | 0.647
403.2 K, w1 = 0.1 | 0.661 | 0.661 | 0.667 | 0.683
406.2 K, w1 = 0.2 | 0.632 | 0.632 | 0.638 | 0.648
409.6 K, w1 = 0.3 | 0.6 | 0.6 | 0.606 | 0.618
425.9 K, w1 = 0.1 | 0.657 | 0.657 | 0.662 | 0.681
427.2 K, w1 = 0.3 | 0.598 | 0.598 | 0.604 | 0.616
431.2 K, w1 = 0.2 | 0.628 | 0.628 | 0.634 | 0.646
456.9 K, w1 = 0.2 | 0.616 | 0.616 | 0.623 | 0.635
457.6 K, w1 = 0.1 | 0.643 | 0.643 | 0.65 | 0.665
463.1 K, w1 = 0.3 | 0.582 | 0.582 | 0.586 | 0.599
481.3 K, w1 = 0.2 | – | – | 0.609 | 0.623
488.2 K, w1 = 0.1 | – | – | 0.628 | 0.65
494.2 K, w1 = 0.3 | – | – | 0.564 | 0.579
516.3 K, w1 = 0.3 | – | – | 0.542 | 0.562
519.3 K, w1 = 0.1 | – | – | 0.598 | 0.622
520.6 K, w1 = 0.2 | – | – | 0.575 | 0.592
539.7 K, w1 = 0.3 | – | – | 0.511 | 0.538
543.2 K, w1 = 0.1 | – | – | 0.569 | 0.597
547.6 K, w1 = 0.2 | – | – | 0.539 | 0.564
571.3 K, w1 = 0.2 | – | – | 0.501 | 0.534
571.9 K, w1 = 0.1 | – | – | 0.522 | 0.55
575.6 K, w1 = 0.3 | – | – | 0.455 | 0.496

[Br-].[Na+] [sodium bromide] + O
thermal conductivity [W/m/K]
Settings | 100 kPa | 2000 kPa | 10000 kPa | 40000 kPa
294.3 K, w1 = 0.1 | 0.58 | 0.58 | 0.586 | 0.596
294.7 K, w1 = 0.38 | 0.504 | 0.504 | 0.512 | 0.525
296 K, w1 = 0.2 | 0.56 | 0.56 | 0.565 | 0.575
297.2 K, w1 = 0.3 | 0.537 | 0.537 | 0.541 | 0.55
319.6 K, w1 = 0.38 | 0.531 | 0.531 | 0.536 | 0.549
319.9 K, w1 = 0.2 | 0.595 | 0.595 | 0.599 | 0.609
321.7 K, w1 = 0.1 | 0.618 | 0.618 | 0.624 | 0.635
323.9 K, w1 = 0.3 | 0.573 | 0.573 | 0.578 | 0.587
347.2 K, w1 = 0.38 | 0.56 | 0.56 | 0.565 | 0.578
350.2 K, w1 = 0.2 | 0.624 | 0.624 | 0.628 | 0.639
354.2 K, w1 = 0.1 | 0.648 | 0.648 | 0.653 | 0.664
357.7 K, w1 = 0.3 | 0.601 | 0.601 | 0.608 | 0.617
374.5 K, w1 = 0.38 | 0.58 | 0.58 | 0.589 | 0.603
377.9 K, w1 = 0.2 | 0.637 | 0.637 | 0.642 | 0.653
378.6 K, w1 = 0.1 | 0.659 | 0.659 | 0.663 | 0.674
380.2 K, w1 = 0.3 | 0.61 | 0.61 | 0.617 | 0.627
396.5 K, w1 = 0.2 | 0.643 | 0.643 | 0.648 | 0.659
398.7 K, w1 = 0.38 | 0.585 | 0.585 | 0.593 | 0.609
399.2 K, w1 = 0.1 | 0.664 | 0.664 | 0.669 | 0.679
401 K, w1 = 0.3 | 0.615 | 0.615 | 0.623 | 0.633
424.5 K, w1 = 0.38 | 0.585 | 0.585 | 0.593 | 0.609
426.4 K, w1 = 0.3 | 0.614 | 0.614 | 0.624 | 0.637
427.5 K, w1 = 0.1 | 0.664 | 0.664 | 0.671 | 0.682
429.2 K, w1 = 0.2 | 0.643 | 0.643 | 0.649 | 0.659
450.6 K, w1 = 0.2 | 0.632 | 0.632 | 0.638 | 0.652
453.7 K, w1 = 0.1 | 0.652 | 0.652 | 0.659 | 0.672
455 K, w1 = 0.3 | 0.6 | 0.6 | 0.608 | 0.621
456.7 K, w1 = 0.38 | 0.572 | 0.572 | 0.583 | 0.6
483.2 K, w1 = 0.2 | – | – | 0.618 | 0.634
483.2 K, w1 = 0.38 | – | – | 0.569 | 0.59
486.2 K, w1 = 0.1 | – | – | 0.639 | 0.66
515.3 K, w1 = 0.1 | – | – | 0.611 | 0.634
515.7 K, w1 = 0.38 | – | – | 0.535 | 0.565
519.4 K, w1 = 0.2 | – | – | 0.583 | 0.601
541.3 K, w1 = 0.38 | – | – | 0.504 | 0.539
542.7 K, w1 = 0.1 | – | – | 0.576 | 0.604
547.6 K, w1 = 0.2 | – | – | 0.546 | 0.571
576.2 K, w1 = 0.2 | – | – | 0.504 | 0.535
576.5 K, w1 = 0.38 | – | – | 0.454 | 0.494
577.3 K, w1 = 0.1 | – | – | 0.525 | 0.566
